ChEMBL document CHEMBL4002576, “Tetrahydropyranodiquinolin-8-amines as new, non hepatotoxic, antioxidant, and acetylcholinesterase inhibitors for Alzheimer's disease therapy” (Eur J Med Chem, 2017)
The source made the active and inactive calls. No cut-off for these calls is given here.

Key:
Acetylcholinesterase [1] = biological target: T1, Acetylcholinesterase (Homo sapiens, UniProt P22303); experiment: Inhibition of recombinant human AChE expressed in HEK293 cells using acetylthiocholine iodide as substrate pretreated for 5 mins followed by substrate addition measured after 5 mins by spectrophotometry based Ellman method
Cholinesterase = Cholinesterase (Equus caballus, UniProt P81908); experiment: Inhibition of horse serum BuChE using butyrylthiocholine as substrate pretreated for 10 mins followed by substrate addition measured after 15 mins by spectrophotometry based Ellman method
Acetylcholinesterase [2] = biological target: Acetylcholinesterase (Electrophorus electricus, UniProt O42275)
Description: Inhibition of Electrophorus electricus AChE using acetylthiocholine iodide as substrate pretreated for 10 mins followed by substrate addition measured after 15 mins by spectrophotometry based Ellman method

Acetylcholinesterase [3] = biological target: T1, Acetylcholinesterase; experiment: Non-competitive inhibition of recombinant human AChE expressed in HEK293 cells using varying levels of acetylthiocholine iodide as substrate pretreated for 5 mins followed by substrate addition measured after 5 mins by Lineweaver-burk plot analysis
[4] = Metal chelating activity assessed as compound-Cu2+ complex formation at 10 uM in presence of CuSO4 after 20 hrs by UV-visible spectrophotometric analysis; assay type: functional
[5] = Metal chelating activity assessed as compound-Cu2+ complex formation at 10 uM in presence of CuSO4 after 60 mins by UV-visible spectrophotometric analysis; assay type: functional
[6] = Metal chelating activity assessed as compound-Fe2+ complex formation at 10 uM in presence of FeSO4 after 60 mins by UV-visible spectrophotometric analysis; assay type: functional
[7] = Metal chelating activity assessed as compound-Fe2+ complex formation at 10 uM in presence of FeSO4 after 20 hrs by UV-visible spectrophotometric analysis; assay type: functional
physchem = conditions: PAMPA, pH 7.4
Description: Permeability of the compound at 100 uM at pH 7.4 measured after 6 hrs by PAMPA

in vitro [8] = conditions: human, primary hepatocytes
Description: Cytotoxicity against human primary hepatocytes assessed as cell viability at 0.1 uM measured after 2 hrs by trypan blue assay relative to control

in vitro [9] = conditions: human, primary hepatocytes; remark: listed apart in the source
Description: Cytotoxicity against human primary hepatocytes assessed as cell viability at 1 uM measured after 2 hrs by trypan blue assay relative to control

in vitro [10] = conditions: human, primary hepatocytes; remark: listed apart in the source
Description: Cytotoxicity against human primary hepatocytes assessed as cell viability at 3 uM measured after 2 hrs by trypan blue assay relative to control

in vitro [11] = conditions: human, primary hepatocytes; remark: listed apart in the source
Description: Cytotoxicity against human primary hepatocytes assessed as cell viability at 10 uM measured after 2 hrs by trypan blue assay relative to control

in vitro [12] = conditions: human, primary hepatocytes; remark: listed apart in the source
Description: Cytotoxicity against human primary hepatocytes assessed as cell viability at 30 uM measured after 2 hrs by trypan blue assay relative to control

in vitro [13] = conditions: human, primary hepatocytes; remark: listed apart in the source
Description: Cytotoxicity against human primary hepatocytes assessed as cell viability at 100 uM measured after 2 hrs by trypan blue assay relative to control

Sequence of Acetylcholinesterase (Electrophorus electricus, UniProt O42275) (O42275 whole entry): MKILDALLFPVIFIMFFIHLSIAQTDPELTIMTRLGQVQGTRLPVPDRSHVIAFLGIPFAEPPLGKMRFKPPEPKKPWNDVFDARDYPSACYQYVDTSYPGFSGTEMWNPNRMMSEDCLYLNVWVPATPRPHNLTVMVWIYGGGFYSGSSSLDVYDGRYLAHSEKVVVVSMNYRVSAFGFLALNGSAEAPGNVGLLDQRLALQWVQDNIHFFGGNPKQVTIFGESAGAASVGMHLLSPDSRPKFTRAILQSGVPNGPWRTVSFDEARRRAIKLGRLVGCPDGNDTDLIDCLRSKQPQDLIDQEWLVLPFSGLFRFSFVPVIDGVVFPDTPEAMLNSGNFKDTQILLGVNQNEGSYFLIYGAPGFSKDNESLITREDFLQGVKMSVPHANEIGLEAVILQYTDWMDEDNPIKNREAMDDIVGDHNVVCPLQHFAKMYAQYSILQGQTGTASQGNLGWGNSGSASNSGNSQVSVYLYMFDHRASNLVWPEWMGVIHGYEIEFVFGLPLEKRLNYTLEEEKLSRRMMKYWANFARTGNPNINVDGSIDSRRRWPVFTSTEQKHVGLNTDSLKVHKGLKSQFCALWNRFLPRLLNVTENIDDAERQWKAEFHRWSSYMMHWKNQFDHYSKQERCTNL
T1 sequence (P22303 whole entry): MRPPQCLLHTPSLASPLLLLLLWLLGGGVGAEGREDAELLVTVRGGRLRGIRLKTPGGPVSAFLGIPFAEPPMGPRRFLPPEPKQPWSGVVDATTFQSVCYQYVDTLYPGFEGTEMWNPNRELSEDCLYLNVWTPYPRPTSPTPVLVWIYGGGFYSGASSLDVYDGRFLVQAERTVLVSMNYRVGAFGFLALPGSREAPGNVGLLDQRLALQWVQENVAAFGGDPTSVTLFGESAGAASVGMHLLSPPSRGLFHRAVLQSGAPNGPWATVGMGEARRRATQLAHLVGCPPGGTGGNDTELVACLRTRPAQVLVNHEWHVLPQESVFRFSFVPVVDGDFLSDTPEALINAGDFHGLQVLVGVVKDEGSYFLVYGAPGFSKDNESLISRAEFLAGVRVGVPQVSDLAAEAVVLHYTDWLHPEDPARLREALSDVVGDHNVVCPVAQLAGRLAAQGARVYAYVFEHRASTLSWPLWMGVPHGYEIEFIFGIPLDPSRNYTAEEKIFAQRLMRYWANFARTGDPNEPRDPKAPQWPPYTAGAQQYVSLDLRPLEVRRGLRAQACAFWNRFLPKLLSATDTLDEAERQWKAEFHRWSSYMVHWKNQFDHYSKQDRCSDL
Sequence of Cholinesterase (P81908 whole entry): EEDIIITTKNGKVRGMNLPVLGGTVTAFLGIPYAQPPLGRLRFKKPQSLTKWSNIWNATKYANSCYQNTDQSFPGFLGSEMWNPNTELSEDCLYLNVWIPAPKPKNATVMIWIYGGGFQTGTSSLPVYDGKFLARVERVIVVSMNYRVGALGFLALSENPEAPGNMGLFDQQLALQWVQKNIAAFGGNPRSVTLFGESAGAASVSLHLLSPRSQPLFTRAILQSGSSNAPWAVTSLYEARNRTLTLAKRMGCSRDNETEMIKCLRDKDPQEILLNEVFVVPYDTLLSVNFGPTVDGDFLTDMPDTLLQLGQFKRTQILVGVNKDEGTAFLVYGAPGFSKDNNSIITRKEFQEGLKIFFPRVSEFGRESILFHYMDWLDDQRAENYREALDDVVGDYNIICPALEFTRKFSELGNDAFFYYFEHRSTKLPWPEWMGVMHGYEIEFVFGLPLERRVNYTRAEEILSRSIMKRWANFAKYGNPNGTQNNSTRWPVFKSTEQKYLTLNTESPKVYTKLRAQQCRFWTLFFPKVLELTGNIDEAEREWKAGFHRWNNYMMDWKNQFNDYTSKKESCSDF

SMILES	IC50 (Cholinesterase; read-out: IC50)	IC50 (Acetylcholinesterase [2])	IC50 (Acetylcholinesterase [1]; read-out: IC50)	IC50 (Cholinesterase)	further results
Nc1c2c(nc3c1C(c1cccnc1Br)c1ccc4cccnc4c1O3)CCCC2 (stereo not drawn)	2.86 µM	0.19 µM	–	–	IC50 (Acetylcholinesterase [1]; hek293): Not Active
COc1cccc(C2c3ccc4cccnc4c3Oc3nc4c(c(N)c32)CCCC4)c1 (stereo not drawn)	1.3 µM	0.04 µM	0.75 µM	–	Ki (Acetylcholinesterase [3]): 0.87 µM; Activity [4]: inactive; Activity [5]: inactive; Activity [6]: inactive; Activity [7]: inactive; Papp at 6 h, 100 µM (physchem): 5.41 ×10⁻⁶ cm/s; viability at 2 h, 0.1 µM (in vitro [8]): 89%; viability at 2 h, 1 µM (in vitro [9]): 84%; viability at 2 h, 3 µM (in vitro [10]): 83%; viability at 2 h, 10 µM (in vitro [11]): 89%; viability at 2 h, 30 µM (in vitro [12]): 99%; viability at 2 h, 100 µM (in vitro [13]): 89%
COc1ccccc1C1c2ccc3cccnc3c2Oc2nc3c(c(N)c21)CCCC3 (stereo not drawn)	1.51 µM	0.08 µM	–	–	–
Nc1c2c(nc3c1C(c1ccccc1F)c1ccc4cccnc4c1O3)CCCC2 (stereo not drawn)	0.63 µM	0.11 µM	–	–	–
Cc1ccc(C2c3ccc4cccnc4c3Oc3nc4c(c(N)c32)CCCC4)cc1 (stereo not drawn)	0.53 µM	0.04 µM	2.85 µM	–	–
Nc1c2c(nc3c1C(c1c(Cl)cccc1Cl)c1ccc4cccnc4c1O3)CCCC2 (stereo not drawn)	–	0.1 µM	–	Not Active	–
Nc1c2c(nc3c1C(c1ccccc1)c1ccc4cccnc4c1O3)CCCC2 (stereo not drawn)	1.11 µM	0.06 µM	1.73 µM	–	–
Nc1c2c(nc3c1C(c1ccncc1)c1ccc4cccnc4c1O3)CCCC2 (stereo not drawn)	–	0.47 µM	–	Not Active	IC50 (Acetylcholinesterase [1]; hek293): Not Active
Nc1c2c(nc3c1C(c1ccccc1Br)c1ccc4cccnc4c1O3)CCCC2 (stereo not drawn)	0.21 µM	0.14 µM	–	–	–
Nc1c2c(nc3c1C(c1ccc([N+](=O)[O-])cc1)c1ccc4cccnc4c1O3)CCCC2 (stereo not drawn)	–	0.24 µM	–	Not Active	–
COc1ccc(C2c3ccc4cccnc4c3Oc3nc4c(c(N)c32)CCCC4)cc1 (stereo not drawn)	1.3 µM	0.04 µM	1.51 µM	–	–
Nc1c2c(nc3c1C(c1cccc(F)c1)c1ccc4cccnc4c1O3)CCCC2 (stereo not drawn)	–	0.09 µM	2.2 µM	Not Active	–
